Data: patent publication US20220143045A1, “PROGESTERONE RECEPTOR ANTAGONIST DOSAGE FORM” (BAYER PHARMA AKTIENGESELLSCHAFT, priority 2013, published 2022)
Several values for one entry are separate records, joined by “and”; a condition that tells them apart may be missing. Equal entries are not always repeated.

Legend:
Format in all cases: in vivo, human
healthy female subjects [1] = assay: Endometrial thickness by transvaginal ultrasound during treatment; settings: 2 mg, 84 days, versus other dosages (FIG. 2)
Procedure: (§1) As described in example 2.
The endometrial thickness was measured in the medio-sagittal section as double-layer in millimeters using transvaginal ultrasound.

healthy female subjects [2] = assay: Ovulation inhibition: follicle size, estradiol (E2), progesterone (P)
From the text: Protocol: Randomized Study population of healthy female subjects as described in example 2 above.
Blood samples were obtained from healthy female subjects for the determination of Estradiol (E2), Progesterone (P), luteinizing hormone (LH) and follicle stimulating hormone (FSH) in serum and taken at the same time points as listed below during the pre-treatment cycle, the treatment and follow-up cycle. Transvaginal ultrasound (TVU) was used to monitor ovarian follicular growth during pretreatment (days 9 and 21), treatment (days 7, 14, 21, 28, 35, 42, 49, 56, 63, 70, 77, 84) and follow-up cycle (days 9 and 21).

healthy female subjects [3] = assay: Dose-effect of 84 days treatment: bleeding pattern (non-bleeding rate), daily self-assessment
From the text: • 1. Healthy female subjects, sterilized by tubal ligation • 2. Age at screening: 18-45 years • 3. Body mass index (BMI) at screening: ≥18 and ≤32 kg/m^2 • 4. At least 3 consecutive regular menstrual cycles with a cycle length of 24-35 days before first screening examination according to the subject's history • 5. Absence of clinically relevant abnormal findings in the pre-treatment endometrial biopsy • 6. Adequate venous access (frequent blood sampling)
The subject had to start the intake of the study drugs on the first or second day of menstrual bleeding after the pre-treatment cycle. The pre-treatment cycle started on the first day of the subject's menstrual bleeding after screening examinations had shown that the subject was eligible for further participation. After the pre-treatments cycle treatment was started. The treatment period started with the first and ended with the last intake of compound 1. For each intake day the subject received one bottle containing 4 tablets. The number of tablets taken and the intake time had to be documented in the diary.
The evaluation of bleeding pattern was based on a daily self-assessment of the bleeding intensity by the subject. These assessments were categorized as defined below. The subjects were provided with an explanation of the categories in local language, and were asked to document the bleeding intensity in their diaries accordingly (one entry per day).
Administration of compound 1 occurred during 84 days (multiple doses administration).

healthy female subjects [4] = assay: Return of bleeding after end of treatment (84 days); settings: for Number of days until first bleeding after end of treatment (mean ± SD) / Number of days until first bleeding after end of treatment (min − max): PPS
From the text: as §1
The first day of bleeding after the end of the treatment was marked.

[5] = 0.1 mg, n = 11, treatment period
[6] = 0.1 mg, n = 11, treatment period, (third category)
[7] = 0.5 mg, n = 11, treatment period
[8] = 0.5 mg, n = 11, treatment period, (third category)
[9] = 1 mg, n = 12, treatment period, (third category)
[10] = 2 mg, n = 12, treatment period, (third category)
[11] = 5 mg, n = 11, treatment period, (third category)
[12] = 0.5 mg once daily per os, 84 days

For `C[C@]12C[C@H](c3ccc(S(C)(=O)=O)cc3)C3=C4CCC(=O)C=C4CC[C@H]3[C@@H]1CC[C@@]2(O)C(F)(F)C(F)(F)F` [compound 1, (11β,17β)-17-Hydroxy-11-[4-(methylsulphonyl)phenyl]-17-(pentafluoroethyl)estra-4,9-dien-3-one], the “maximum thickness of the endometrium within treatment epoch” value (healthy female subjects [1]) was “lower maximum thickness of the endometrium compared to other dosages”, the “number of subjects with Follicle size ≤ 13 mm” value (healthy female subjects [2]; [5]) was 1 and the “percentage of subjects with Follicle size ≤ 13 mm” value (healthy female subjects [2]; [5]) was 9%. The “number of subjects with Follicle size > 13 mm + Estradiol > 27.2 pg/mL + Progesterone < 1.57 μg/L” value (healthy female subjects [2]; [6]) was 10, the “percentage of subjects with Follicle size > 13 mm + Estradiol > 27.2 pg/mL + Progesterone < 1.57 μg/L” value (healthy female subjects [2]; [6]) was 91% and the “number of subjects with Follicle size > 13 mm + Estradiol > 27.2 pg/mL + Progesterone < 1.57 μg/L” value (healthy female subjects [2]; [7]) was 6. For the same compound, the “percentage of subjects with Follicle size > 13 mm + Estradiol > 27.2 pg/mL + Progesterone < 1.57 μg/L” value (healthy female subjects [2]; [7]) was 55%, the “number of subjects with Follicle size > 13 mm + Estradiol > 27.2 pg/mL + Progesterone < 1.57 μg/L” value (healthy female subjects [2]; [8]) was 5 and the “percentage of subjects with Follicle size > 13 mm + Estradiol > 27.2 pg/mL + Progesterone < 1.57 μg/L” value (healthy female subjects [2]; [8]) was 45%. For the same compound, the “number of subjects with Follicle size > 13 mm + Estradiol > 27.2 pg/mL + Progesterone < 1.57 μg/L” value (healthy female subjects [2]; 1 mg, n = 12, treatment period) was 9, the “number of subjects with Follicle size ≤ 13 mm” value (healthy female subjects [2]; 1 mg, n = 12, treatment period) was 1 and the “percentage of subjects with Follicle size > 13 mm + Estradiol > 27.2 pg/mL + Progesterone < 1.57 μg/L” value (healthy female subjects [2]; 1 mg, n = 12, treatment period) was 75%. The “percentage of subjects with Follicle size ≤ 13 mm” value (healthy female subjects [2]; 1 mg, n = 12, treatment period) was 8%, the “number of subjects with Follicle size > 13 mm + Estradiol > 27.2 pg/mL + Progesterone < 1.57 μg/L” value (healthy female subjects [2]; [9]) was 2 and the “percentage of subjects with Follicle size > 13 mm + Estradiol > 27.2 pg/mL + Progesterone < 1.57 μg/L” value (healthy female subjects [2]; [9]) was 17%. The “number of subjects with Follicle size > 13 mm + Estradiol > 27.2 pg/mL + Progesterone < 1.57 μg/L” value (healthy female subjects [2]; 2 mg, n = 12, treatment period) was 11, the “percentage of subjects with Follicle size > 13 mm + Estradiol > 27.2 pg/mL + Progesterone < 1.57 μg/L” value (healthy female subjects [2]; 2 mg, n = 12, treatment period) was 92% and the “number of subjects with Follicle size > 13 mm + Estradiol > 27.2 pg/mL + Progesterone < 1.57 μg/L” value (healthy female subjects [2]; [10]) was 1. For the same compound, the “percentage of subjects with Follicle size > 13 mm + Estradiol > 27.2 pg/mL + Progesterone < 1.57 μg/L” value (healthy female subjects [2]; [10]) was 8%, the “number of subjects with Follicle size > 13 mm + Estradiol > 27.2 pg/mL + Progesterone < 1.57 μg/L” value (healthy female subjects [2]; 5 mg, n = 11, treatment period) was 9 and the “number of subjects with Follicle size ≤ 13 mm” value (healthy female subjects [2]; 5 mg, n = 11, treatment period) was 1. For the same compound, the “percentage of subjects with Follicle size > 13 mm + Estradiol > 27.2 pg/mL + Progesterone < 1.57 μg/L” value (healthy female subjects [2]; 5 mg, n = 11, treatment period) was 82%, the “percentage of subjects with Follicle size ≤ 13 mm” value (healthy female subjects [2]; 5 mg, n = 11, treatment period) was 9% and the “number of subjects with Follicle size > 13 mm + Estradiol > 27.2 pg/mL + Progesterone < 1.57 μg/L” value (healthy female subjects [2]; [11]) was 1. For the same compound, the “percentage of subjects with Follicle size > 13 mm + Estradiol > 27.2 pg/mL + Progesterone < 1.57 μg/L” value (healthy female subjects [2]; [11]) was 9%, the “ovulation during treatment (progesterone value <1.57 μg/L)” value (healthy female subjects [2]; dosages ≥0.5 mg, 84 days) was “No ovulation occurred in most of the subjects” and the “number of subjects with no further bleeding during the treatment period (out of 11)” value (healthy female subjects [3]; [12]) was 3. For the same compound, the “subjects with no further bleeding during the treatment period” value (healthy female subjects [3]; [12]) was 27%, the “number of days of bleeding during the treatment period” value (healthy female subjects [3]; 0.1-5 mg once daily per os, 84 days) was “marked and dose-dependent reduction” and the “dosage at which 50% of dose-dependent reduction of bleeding is observed” value (healthy female subjects [3]; 84 days treatment, posterior of non-bleeding rate (FIG. 1)) was 0.7 mg. For the same compound, the “saturation of non-bleeding rate” value (healthy female subjects [3]; from 2 mg up to 5 mg, 84 days) was “around 95%”, the “amenorrhea (non-bleeding)” value (healthy female subjects [3]; healthy subjects, dosage of 2 mg) was 92.5% and the “Number of days until first bleeding after end of treatment (mean ± SD)” value (shortened to “Number … (mean ± SD)”) (healthy female subjects [4]; 0.1 mg, n = 11) was 12.2 ± 9.9 days. For the same compound, the “Number of days until first bleeding after end of treatment (min − max)” value (“Number … (min − max)” below) (healthy female subjects [4]; 0.1 mg, n = 11) was “(3 − 35) days”, the “Number … (mean ± SD)” value (healthy female subjects [4]; 0.5 mg, n = 11) was 14.8 ± 10.2 days and the “Number … (min − max)” value (healthy female subjects [4]; 0.5 mg, n = 11) was “( 1 − 28) days”. For the same compound, the “Number … (mean ± SD)” value (healthy female subjects [4]; 1 mg, n = 10) was 20.3 ± 6.2 days, the “Number … (min − max)” value (healthy female subjects [4]; 1 mg, n = 10) was “(8 − 28) days” and the “Number … (mean ± SD)” value (healthy female subjects [4]; 2 mg, n = 12) was 25 days and 25.8 ± 11.1 days. The “Number … (min − max)” value (healthy female subjects [4]; 2 mg, n = 12) was “(9 − 52) days”, the “delayed return of bleeding after treatment, one subject” value (healthy female subjects [4]; 2 mg, single subject) was “about 52 days” and the “Number … (mean ± SD)” value (healthy female subjects [4]; 5 mg, n = 11) was 20.9 ± 10.9 days. The “Number … (min − max)” value (healthy female subjects [4]; 5 mg, n = 11) was “(1 − 38) days”.
